# In patent US12569448B2, “Membrane-based two component therapeutic gas release system for oral administration” (Julius-Maximilians-Universitaet Wuerzburg, priority 2019, dated 2026):
# Assay: CO release rates from free CORM and OCORS systems
# Type: physicochemical
# Experimental: This example illustrates the influence of the wall thickness of the silicone membrane on the release rate of the therapeutic gas.
# The trigger compounds FeCl3 and Na2SO3 were used in aqueous solution and in molar excess amounts relative to the CORM.
# In Table 1, Cmax describes the highest value measured for the therapeutic gas concentration. Tmax is the time, at which this value was measured. 090% describes 90% of Cmax, and T90% is the time point, at which 90% of Cmax were released. For the free metal carbonyl, a different release vessel was used than for the CO releasing systems, and therefore, the absolute values for Cmax differ.
# [1] = trigger in aqueous solution in molar excess
smiles,measurement,setting,value
"[C-]#[N+]CC(=O)O.[C-]#[N+]CC(=O)O.[C-]#[N+]CC(=O)O.[C-]#[O+].[C-]#[O+].[C-]#[O+].[Mo] [Entry 1, Mo(CO)3(CNCH2CO2H)3]",C90% (90% of Cmax),free carbonyl measured in a different release vessel,576.7 ppm
same,T90% (time point at which 90% of Cmax were released),[1],17 min
same,Tmax (time at which Cmax was measured),[1],44 min
same,Cmax (highest value measured for the therapeutic gas concentration),"trigger in aqueous solution in molar excess, free carbonyl measured in a different release vessel than the OCORS systems",640.8 ppm
